From patent US20070117770A1, “Human ribosomal DNA (rDNA) and ribosomal RNA (rRNA) nucleic acids and uses thereof” (Cylene Pharmaceuticals, Inc., priority 2005, published 2007) come the findings set out here.

For one assay, the target named is Fgr(h) (Homo sapiens, UniProt P09769). Description: Protein kinase inhibition assay. It is filed as biochemical. To be noted: read-out: percent residual activity of Fgr(h). Here is the method: (§1) Certain compounds were tested for activity in protein kinase inhibition assays. All substrates were dissolved and diluted to working stocks in de-ionized water, apart from histone H1 (10× working stock in 20 mM MOPS pH 7.0), PDKtide (10× working stock in 50 mM Tris pH 7.0) ATF2 (which is typically stored at a 20× working stock in 50 mM Tris pH 7.5, 150 mM NaCl, 0.1 mM EGTA, 0.03% Brij-35, 50% glycerol, 1 mM benzamidine, 0.2 mM PMSF and 0.1% R-mercaptoethanol), KKLNRTLSFAEPG (SEQ ID NO:203) and RRRLSFAEPG (SEQ ID NO:204) (50 mM HEPES pH 7.4) and GGEEEEYFELVKKKK (SEQ ID NO:205) (20 mM MOPS pH 7.0). All kinases were pre-diluted to a 10× working concentration prior to addition into the assay. The composition of the dilution buffer for each kinase is detailed below.
Sequence of Fgr(h) (P09769 whole entry): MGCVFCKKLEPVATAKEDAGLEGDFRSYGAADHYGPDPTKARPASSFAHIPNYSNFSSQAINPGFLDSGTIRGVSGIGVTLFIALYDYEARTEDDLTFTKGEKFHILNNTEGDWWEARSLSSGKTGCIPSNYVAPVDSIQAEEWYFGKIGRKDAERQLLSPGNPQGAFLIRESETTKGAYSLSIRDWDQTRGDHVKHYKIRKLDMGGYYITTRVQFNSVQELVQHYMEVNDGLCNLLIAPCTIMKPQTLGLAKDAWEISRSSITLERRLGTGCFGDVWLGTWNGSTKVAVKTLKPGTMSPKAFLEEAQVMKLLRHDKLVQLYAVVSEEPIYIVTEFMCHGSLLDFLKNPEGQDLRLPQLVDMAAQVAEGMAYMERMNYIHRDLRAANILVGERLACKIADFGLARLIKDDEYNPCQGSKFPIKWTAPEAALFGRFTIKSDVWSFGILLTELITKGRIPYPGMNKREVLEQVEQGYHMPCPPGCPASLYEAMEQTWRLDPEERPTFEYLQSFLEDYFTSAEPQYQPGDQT
(§2) In a final reaction volume of 25 μl, Fgr (h) (5-10 mU) is incubated with 8 mM MOPS pH 7.0, 0.2 mM EDTA, 0.1 mg/ml poly(Glu, Tyr) 4:1, 10 mM MgAcetate and [gamma-33P-ATP] (specific activity approx. 500 cpm/pmol, concentration as required). The reaction is initiated by the addition of the MgATP mix. After incubation for 40 minutes at room temperature, the reaction is stopped by the addition of 5 μl of a 3% phosphoric acid solution. 10 μl of the reaction is then spotted onto a Filtermat A and washed three times for 5 minutes in 75 mM phosphoric acid and once in methanol prior to drying and scintillation counting.

A further assay concerns the target JNK3(h) (Homo sapiens, UniProt P53779). In words: Protein kinase inhibition assay. The format is biochemical. The following applies: read-out: percent residual activity of JNK3(h). The method, then:
as §1
as §2, with “JNK3” for “Fgr”, “50” for “8”, “Tris” for “MOPS”, “7.5, 0.1” for “7.0, 0.2”, “EGTA, 0.1% R-mercaptoethanol, 250 μM peptide,” for “EDTA, 0.1 mg/ml poly(Glu, Tyr) 4:1,”, “P30 filtermat” for “Filtermat A”

In the next assay the target is MuSK(h) (Homo sapiens, UniProt O15146). In words: Protein kinase inhibition assay. It is filed as biochemical. The following applies: read-out: percent residual activity of MuSK(h). Here is the method:
as §1
as §2, with “MuSK” for “Fgr”, “5 mM MnCl2, 0.33” for “0.1”, “myelin basic protein,” for “poly(Glu, Tyr) 4:1,”, “P30 filtermat” for “Filtermat A”

The target of the next assay is PKBγ(h) (Homo sapiens, UniProt Q9Y243). In words: Protein kinase inhibition assay. It is filed as biochemical. The following applies: read-out: percent residual activity of PKBγ(h). Here is the method:
as §1
as §2, with “PKBγ” for “Fgr”, “30 μM GRPRTSSFAEGKK (SEQ ID NO:232),” for “0.1 mg/ml poly(Glu, Tyr) 4:1,”, “P30 filtermat” for “Filtermat A”

The next assay deals with Rsk1(h) (Homo sapiens, UniProt Q15418). In words: Protein kinase inhibition assay. The format is biochemical. The following applies: read-out: percent residual activity of Rsk1(h). The method, then:
as §1
as §2, with “Rsk1” for “Fgr”, “30 μM KKKNRTLSVA (SEQ ID NO:212),” for “0.1 mg/ml poly(Glu, Tyr) 4:1,”, “P30 filtermat” for “Filtermat A”

A further assay deals with T1, nucleolin/cMyc QP DNA (Homo sapiens, UniProt P19338).
T1 construct: without the N-terminal acidic stretches domain
T1 sequence (P19338 284-710 limits assumed): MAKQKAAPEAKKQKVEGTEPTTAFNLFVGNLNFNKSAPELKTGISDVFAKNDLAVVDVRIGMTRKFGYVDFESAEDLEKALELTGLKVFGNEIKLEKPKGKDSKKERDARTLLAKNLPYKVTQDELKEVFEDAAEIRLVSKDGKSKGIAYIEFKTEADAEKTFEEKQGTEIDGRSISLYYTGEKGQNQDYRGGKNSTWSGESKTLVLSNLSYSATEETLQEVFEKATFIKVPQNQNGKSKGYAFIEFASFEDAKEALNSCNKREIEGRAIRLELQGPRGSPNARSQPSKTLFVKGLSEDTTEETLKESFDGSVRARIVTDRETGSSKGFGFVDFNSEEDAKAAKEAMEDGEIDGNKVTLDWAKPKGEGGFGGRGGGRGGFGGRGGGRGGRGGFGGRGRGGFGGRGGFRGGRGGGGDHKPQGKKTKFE
Description: EMSA, nucleolin/QP ligand interaction. The format is binding. To be noted: nucleolin ~250 nM, 32P-labeled ligand 10 or 250 nM, 30 minutes (FIG. 1, FIG. 2). The method, then:
The following assays assessed effects of compounds on interactions between nucleolin and nucleic acid ligands capable of forming quadruplex (QP) and hairpin (HP) secondary structures. Nucleic acid ligands tested were a cMyc QP DNA having nucleotide sequence 5′-[…]-3′ (SEQ ID NO: 176) and a HP pre-rRNA region to which nucleolin binds, having the sequence 5′-[…]-3′ (SEQ ID NO: 177). In the assays, recombinant nucleolin (˜250 nM), which was fused to maltose binding protein and had the sequence under accession number NM_005381 without the N-terminal acidic stretches domain, was incubated with each of the two ^32P-labeled nucleic acid ligands (10 or 250 nM). Nucleolin and the nucleic acid ligand were incubated in the presence or absence of a test compound of Formula A-1, B-1, C-6 or C-7 in an incubation buffer (12.5 mM Tris, pH 7.6, 60 mM KCl, 1 mM MgCl2, 0.1 mM EDTA, 1 mM DTT, 5% glycerol, 0.1 mg/ml BSA) for 30 minutes at room temperature. Structures for A-1 and B-1 are shown above and structures for C-6 and C-7 are shown hereafter: [drawing 17] The resulting complexes were separated on a 6% DNA retardation gel using 0.5× TBE with 20 mM KCl as a running buffer (i.e., electrophoresis mobility shift assay (EMSA)).
On the technique in general: A gel shift assay detects complexes by their altered migration in electrophoresis.

Sequence of Rsk1(h) (Q15418 whole entry): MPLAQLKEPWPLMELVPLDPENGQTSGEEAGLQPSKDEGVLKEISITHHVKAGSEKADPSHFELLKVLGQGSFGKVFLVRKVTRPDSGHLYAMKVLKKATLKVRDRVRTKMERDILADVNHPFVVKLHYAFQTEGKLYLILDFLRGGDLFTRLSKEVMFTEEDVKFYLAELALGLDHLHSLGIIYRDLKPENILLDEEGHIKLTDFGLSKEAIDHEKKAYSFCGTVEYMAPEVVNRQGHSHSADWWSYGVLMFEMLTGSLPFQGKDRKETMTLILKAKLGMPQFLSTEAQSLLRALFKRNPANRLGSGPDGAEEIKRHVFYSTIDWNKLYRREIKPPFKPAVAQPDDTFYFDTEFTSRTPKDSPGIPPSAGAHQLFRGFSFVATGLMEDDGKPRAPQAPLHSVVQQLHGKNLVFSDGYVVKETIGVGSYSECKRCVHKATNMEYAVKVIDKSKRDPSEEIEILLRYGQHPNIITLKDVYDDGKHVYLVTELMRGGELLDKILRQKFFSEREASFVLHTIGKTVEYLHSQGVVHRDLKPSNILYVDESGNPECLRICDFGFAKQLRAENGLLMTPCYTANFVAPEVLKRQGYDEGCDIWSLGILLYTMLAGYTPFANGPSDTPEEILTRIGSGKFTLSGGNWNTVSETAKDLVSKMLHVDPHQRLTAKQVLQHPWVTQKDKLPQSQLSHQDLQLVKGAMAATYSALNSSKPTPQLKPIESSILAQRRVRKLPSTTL
Sequence of MuSK(h) (O15146 24-869): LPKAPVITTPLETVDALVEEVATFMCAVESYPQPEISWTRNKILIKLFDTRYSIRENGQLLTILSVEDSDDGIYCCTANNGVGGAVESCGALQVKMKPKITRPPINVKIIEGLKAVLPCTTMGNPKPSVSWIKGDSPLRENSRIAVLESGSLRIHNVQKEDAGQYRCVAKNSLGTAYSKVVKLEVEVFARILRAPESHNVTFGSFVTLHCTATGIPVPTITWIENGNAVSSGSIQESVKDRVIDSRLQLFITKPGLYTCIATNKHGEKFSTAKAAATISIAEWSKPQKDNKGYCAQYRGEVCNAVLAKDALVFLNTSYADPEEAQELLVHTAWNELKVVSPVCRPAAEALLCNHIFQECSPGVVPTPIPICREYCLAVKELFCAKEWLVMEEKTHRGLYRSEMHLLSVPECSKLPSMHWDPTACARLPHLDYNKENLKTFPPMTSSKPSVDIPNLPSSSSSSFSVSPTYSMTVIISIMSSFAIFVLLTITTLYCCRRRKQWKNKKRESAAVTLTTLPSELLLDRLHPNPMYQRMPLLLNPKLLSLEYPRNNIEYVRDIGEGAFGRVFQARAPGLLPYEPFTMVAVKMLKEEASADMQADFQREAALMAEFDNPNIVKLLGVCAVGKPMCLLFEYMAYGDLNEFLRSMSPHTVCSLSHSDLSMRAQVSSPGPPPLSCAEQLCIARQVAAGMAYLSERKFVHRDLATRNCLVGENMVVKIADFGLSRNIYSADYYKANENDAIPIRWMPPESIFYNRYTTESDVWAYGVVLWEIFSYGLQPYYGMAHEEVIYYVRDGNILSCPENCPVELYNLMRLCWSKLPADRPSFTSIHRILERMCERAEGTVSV
Sequence of PKBγ(h) (Q9Y243 whole entry): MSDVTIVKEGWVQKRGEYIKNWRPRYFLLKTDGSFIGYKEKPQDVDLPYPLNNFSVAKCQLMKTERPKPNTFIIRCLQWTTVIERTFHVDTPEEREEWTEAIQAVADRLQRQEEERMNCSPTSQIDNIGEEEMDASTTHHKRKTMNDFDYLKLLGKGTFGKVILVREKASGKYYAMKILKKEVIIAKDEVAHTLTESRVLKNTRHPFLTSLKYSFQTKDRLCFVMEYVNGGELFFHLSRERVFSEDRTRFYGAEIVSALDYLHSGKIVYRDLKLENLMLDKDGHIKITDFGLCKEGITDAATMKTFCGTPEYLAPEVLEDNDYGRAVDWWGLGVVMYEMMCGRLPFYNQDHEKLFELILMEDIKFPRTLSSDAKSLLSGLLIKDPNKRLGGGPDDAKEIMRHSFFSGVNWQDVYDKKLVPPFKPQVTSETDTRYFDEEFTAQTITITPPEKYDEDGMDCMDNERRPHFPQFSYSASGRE
Sequence of JNK3(h) (P53779 whole entry): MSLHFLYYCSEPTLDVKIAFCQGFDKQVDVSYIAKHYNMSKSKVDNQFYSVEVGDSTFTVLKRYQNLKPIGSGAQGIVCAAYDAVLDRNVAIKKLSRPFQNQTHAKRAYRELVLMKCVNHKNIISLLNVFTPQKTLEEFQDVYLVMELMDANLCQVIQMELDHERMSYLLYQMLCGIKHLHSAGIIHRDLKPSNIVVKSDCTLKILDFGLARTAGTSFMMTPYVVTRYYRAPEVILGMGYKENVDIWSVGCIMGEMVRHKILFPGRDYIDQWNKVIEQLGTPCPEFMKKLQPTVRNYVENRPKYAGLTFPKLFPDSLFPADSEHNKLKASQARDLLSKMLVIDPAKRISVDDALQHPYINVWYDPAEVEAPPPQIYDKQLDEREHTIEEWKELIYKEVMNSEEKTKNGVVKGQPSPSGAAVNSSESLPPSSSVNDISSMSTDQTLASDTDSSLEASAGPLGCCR

In the case of `CN1CCCC1CCNC(=O)c1cn2c3c(c(N4CCC(c5cnccn5)C4)c(F)cc3c1=O)Oc1cc3ccccc3cc1-2` (stereo not drawn) [Compound A-1], the remaining activity at 2.5 µM on Fgr(h) was found to be 78%; at JNK3(h) it was 97%; at MuSK(h) it was 110%; at PKBγ(h), 64%; at Rsk1(h), 85%. The “interference with the nucleolin/QP ligand interaction” value on nucleolin/cMyc QP DNA was “interfered with the nucleolin/QP ligand interaction in a concentration dependent manner”.
For the compound `CC(=O)N1CCN(c2ccc3c(=O)c(C(=O)NCCN4CCCC4)c4n(C)c5ccccc5n4c3n2)CC1` [Compound B-1], the remaining activity at 2.5 µM turned out to be 98% at Fgr(h); 98% at JNK3(h); 108% at MuSK(h); 95% on PKBγ(h); 103% on Rsk1(h). In addition, the “interference with the nucleolin/QP ligand interaction” value at nucleolin/cMyc QP DNA is listed as “interfered with the nucleolin/QP ligand interaction in a concentration dependent manner”.
